In brackets after ≈: the same amount, converted by molar mass. Read-outs that look alike come from different tables or passages of the source.

The record followed here is patent US20200069664A1, “METHODS FOR TREATING INFECTION” (Salix Pharmaceuticals, Ltd, priority 2010, published 2020).

For one assay, the system named is EAEC strain O42. The assay is classed as cell-based, E. coli.
Another assay deals with EAEC. Put plainly: Effect of dialyzed supernatants of treated HEp-2 cells on EAEC adherence. In kind it is cell-based, E. coli. As to conditions: HEp-2 treated 24 h with 64 mg/ml (so in the source); chambered slides with or without HEp-2 cells, 3 h. How it is done:
Supernatant dialysis. HEp-2 cells were cultured in T-175 flasks as described above. […] After 24 h, the medium was collected, loaded into regenerated cellulose dialysis tubing (cutoff, 6 to 8 kDa; Spectra/Por, Rancho Domiguez, Calif.), and dialyzed against 4 liters of PBS changed four times. Each dialysis step lasted at least 6 h and was carried out at 4° C. Dialyzed supernatants were either used immediately in adherence assays or stored at −20° C. until use.
The effect of supernatants on EAEC adherence was determined by mixing EAEC with the dialyzed media from the different antibiotic (or control) treatment groups and adding the bacteria to HEp-2 cells cultured in chambered slides or to chambered slides with no HEp-2 cells. Adherence was visualized microscopically as described above.

In another assay the test system is HEp-2 cells. Kind of assay: Cytokine array of supernatants of treated HEp-2 cells. As to conditions: 64 μg/ml, 24 h; Panomics array of 36 cytokines.
The subject of another assay is C difficile isolates. Kind of assay: In vitro susceptibility of C difficile isolates (agar dilution for rifaximin, Etest for rifampin).

The MIC50 is the lowest concentration that inhibits either 50% of growth or 50% of the strains tested, depending on the study. High values mean weaker potency, low ones greater potency. Usually MIC90 stands for the lowest concentration that inhibits either 90% of growth or 90% of the strains tested, depending on the study. Low readings indicate greater potency, high ones weaker potency. Consider `CO[C@H]1/C=C/O[C@@]2(C)Oc3c(C)c(O)c4c(O)c(c(/C=N/N5CCN(C)CC5)c(O)c4c3C2=O)NC(=O)/C(C)=C\C=C\[C@H](C)[C@H](O)[C@@H](C)[C@@H](O)[C@@H](C)[C@H](OC(C)=O)[C@@H]1C` [Rifampin, rifampin], for which the “EAEC O42 adherence to pretreated HEp-2 cells (microscopy, stacked-brick pattern)” value in the assay on EAEC strain O42 is on record as “adhered in the traditional stacked-brick formation”. Besides, the “Adherence of EAEC mixed with dialyzed supernatants from treated HEp-2 cells” value in the assay with EAEC is “adhered to chambers independently of the presence of HEp-2 cells”. For the same molecule, the “Cytokines detected in supernatants of treated HEp-2 cells” value in the assay with HEp-2 cells is listed as “same profile, except that MIPS was not detected”. In the assay with C difficile isolates, the MIC50 was below 0.002 µg/mL and the MIC90 was determined as 4 µg/mL (≈ 4.86 µM). The molecule further yielded an MIC50 in the assay on C difficile isolates (359 C difficile isolates) below 0.002 µg/mL. Besides, the “Resistant isolates, percent of 359” value in the assay with C difficile isolates (resistance = MIC≥32 μg/mL, for rifaximin b194 says 'rifaximin alone') is recorded as 8%.
